Test results: article PMC6994103 (PLoS Neglected Tropical Diseases, 2020)
Values joined by “and” are separate entries in the source; they are usually repeats but may differ in a detail not shown here. Identical values can stand only once.

Tested on: T. cruzi epimastigotes Y strain
Assay: Synergism BZL with LTD-CPH-CFZ in epimastigotes, Y strain (CompuSyn)
Format: cell-based, Trypanosoma cruzi
Experimental: Parasites´ growth was evaluated at different concentrations of BZL, CV and CV structural analogues, and parasite proliferation was determined after 48 h. […] Growth was determined by counting in a Neubauer chamber and viability assays by using “Cell Titer 96 Aqueous One Solution Cell Proliferation Assay (MTS)” (Promega, Madison, WI, USA) according to the manufacturer’s instructions. Amastigotes were fixed with methanol, stained and mounted with Vectashield with DAPI (Vector Laboratories, Burlingame, CA, USA), and then the non-lysed cells were counted by using fluorescence microscopy. Calculations were performed using CompuSyn software (http://combosyn.com) which is based on the median-effect equation [48] and its extension, the combination index.

## O=C(Cn1ccnc1[N+](=O)[O-])NCc1ccccc1 [Benznidazole]
BZL 0.10 µM + LTD-CPH-CFZ 3.40 µM (1/25 IC50)
  DRI BZL: 16.63 ± 2.78
BZL 0.10 µM + LTD-CPH-CFZ 8.50 µM (1/10 IC50)
  DRI BZL: 73.67 ± 4.95
BZL 0.10 µM + LTD-CPH-CFZ 17.00 µM (1/5 IC50)
  DRI BZL: 374.17 ± 32.50
BZL 0.10 µM + LTD-CPH-CFZ 42.50 µM (1/2 IC50)
  DRI BZL: 923.66 ± 175.14
BZL 1.00 µM + LTD-CPH-CFZ 3.40 µM (1/25 IC50)
  DRI BZL: 5.12 ± 0.06
BZL 1.00 µM + LTD-CPH-CFZ 8.50 µM (1/10 IC50)
  DRI BZL: 13.27 ± 2.61
BZL 1.00 µM + LTD-CPH-CFZ 17.00 µM (1/5 IC50), listed as BZL
  DRI BZL: 54 and 53.83 ± 6.79
BZL 1.00 µM + LTD-CPH-CFZ 42.50 µM (1/2 IC50)
  DRI BZL: 157.01 ± 24.63
BZL 5.00 µM + LTD-CPH-CFZ 3.40 µM (1/25 IC50)
  DRI BZL: 2.45 ± 0.40
BZL 5.00 µM + LTD-CPH-CFZ 8.50 µM (1/10 IC50)
  DRI BZL: 5.48 ± 0.48
BZL 5.00 µM + LTD-CPH-CFZ 17.00 µM (1/5 IC50)
  DRI BZL: 10.31 ± 1.72
BZL 5.00 µM + LTD-CPH-CFZ 42.50 µM (1/2 IC50)
  DRI BZL: 63.09 ± 8.25
BZL 10.00 µM + LTD-CPH-CFZ 3.40 µM (1/25 IC50)
  DRI BZL: 3.89 ± 0.11
BZL 10.00 µM + LTD-CPH-CFZ 8.50 µM (1/10 IC50)
  DRI BZL: 5.45 ± 0.19
BZL 10.00 µM + LTD-CPH-CFZ 17.00 µM (1/5 IC50)
  DRI BZL: 10.20 ± 0.87
BZL 10.00 µM + LTD-CPH-CFZ 42.50 µM (1/2 IC50)
  DRI BZL: 45.77 ± 3.03
BZL 20.00 µM + LTD-CPH-CFZ 3.40 µM (1/25 IC50)
  DRI BZL: 5.88 ± 0.56
BZL 20.00 µM + LTD-CPH-CFZ 8.50 µM (1/10 IC50)
  DRI BZL: 7.44 ± 0.23
BZL 20.00 µM + LTD-CPH-CFZ 17.00 µM (1/5 IC50)
  DRI BZL: 10.94 ± 1.56
BZL 20.00 µM + LTD-CPH-CFZ 42.50 µM (1/2 IC50)
  DRI BZL: 68.51 ± 13.29
Same effect (Fa 0.112) as BZL 0.10 µM + LTD-CPH-CFZ 3.40 µM
  Dose BZL alone: 1.66 ± 0.28 µM
Same effect (Fa 0.257) as BZL 1.00 µM + LTD-CPH-CFZ 3.40 µM
  Dose BZL alone: 5.12 ± 0.06 µM
Same effect (Fa 0.324) as BZL 0.10 µM + LTD-CPH-CFZ 8.50 µM
  Dose BZL alone: 7.37 ± 0.49 µM
Same effect (Fa 0.430) as BZL 5.00 µM + LTD-CPH-CFZ 3.40 µM
  Dose BZL alone: 12.27 ± 2.01 µM
Same effect (Fa 0.447) as BZL 1.00 µM + LTD-CPH-CFZ 8.50 µM
  Dose BZL alone: 13.27 ± 2.61 µM
Same effect (Fa 0.609) as BZL 5.00 µM + LTD-CPH-CFZ 8.50 µM
  Dose BZL alone: 27.38 ± 2.41 µM
Same effect (Fa 0.673) as BZL 0.10 µM + LTD-CPH-CFZ 17.00 µM
  Dose BZL alone: 37.42 ± 3.25 µM
Same effect (Fa 0.682) as BZL 10.00 µM + LTD-CPH-CFZ 3.40 µM
  Dose BZL alone: 38.95 ± 1.06 µM
Same effect (Fa 0.732) as BZL 5.00 µM + LTD-CPH-CFZ 17.00 µM
  Dose BZL alone: 51.57 ± 8.60 µM
Same effect (Fa 0.740) as BZL 1.00 µM + LTD-CPH-CFZ 17.00 µM
  Dose BZL alone: 53.83 ± 6.79 µM
Same effect (Fa 0.743) as BZL 10.00 µM + LTD-CPH-CFZ 8.50 µM
  Dose BZL alone: 54.45 ± 1.86 µM
Same effect (Fa 0.821) as BZL 0.10 µM + LTD-CPH-CFZ 42.50 µM
  Dose BZL alone: 92.37 ± 17.51 µM
Same effect (Fa 0.835) as BZL 10.00 µM + LTD-CPH-CFZ 17.00 µM
  Dose BZL alone: 101.97 ± 8.68 µM
Same effect (Fa 0.852) as BZL 20.00 µM + LTD-CPH-CFZ 3.40 µM
  Dose BZL alone: 117.55 ± 11.14 µM
Same effect (Fa 0.877) as BZL 20.00 µM + LTD-CPH-CFZ 8.50 µM
  Dose BZL alone: 148.83 ± 4.56 µM
Same effect (Fa 0.881) as BZL 1.00 µM + LTD-CPH-CFZ 42.50 µM
  Dose BZL alone: 157.01 ± 24.63 µM
Same effect (Fa 0.909) as BZL 20.00 µM + LTD-CPH-CFZ 17.00 µM
  Dose BZL alone: 218.81 ± 31.25 µM
Same effect (Fa 0.933) as BZL 5.00 µM + LTD-CPH-CFZ 42.50 µM
  Dose BZL alone: 315.46 ± 41.27 µM
Same effect (Fa 0.951) as BZL 10.00 µM + LTD-CPH-CFZ 42.50 µM
  Dose BZL alone: 457.73 ± 30.35 µM
Same effect (Fa 0.981) as BZL 20.00 µM + LTD-CPH-CFZ 42.50 µM
  Dose BZL alone: 1370.11 ± 265.72 µM
